Results on six compounds are retold here after patent publication US6737383B1, “Herbicidal oxadiazolidines” (priority 1999, dated 2004).

The subject of one experiment is Alexandergrass. Description: Test D Alexandergrass. It is filed as in vivo, Brachiaria plantaginea. As to conditions: Preemergence, 0 to 100 scale. The method in brief: (§1)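 Scoring used a 0–100 visual injury scale, with 0 meaning no effect and 100 complete control, assessed 14–21 days after application alongside untreated pots. Preemergence treatments went onto sandy loam surfaces of separately potted seeds within a day of sowing.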

The next experiment deals with bermuda-grass. Description: Test D bermudagrass. It is filed as in vivo, Cynodon dactylon. The note with it: Preemergence, 0 to 100 scale. From the text: (§2) Seeds, tubers, or plant parts of Alexandergrass (Brachiaria plantaginea), bermuda-grass (Cynodon dactylon), common pursiane (Portulaca oleracea), common ragweed (Ambrosia elatior), common groundsel (Senecio vulgaris), dallisgrass (Paspalum dilatatum), goosegrass (Eleusine indica), guineagrass (Panicum maximum), itchgrass (Rottboellia exaltata), Johnson grass (Sorghum halepense), large crabgrass (Digitaria sanguinalis), pitted morningglory (Ipomoea lacunosa), purple nutsedge (Cyperus rotundus), sandbur (Cenchrus echinatus), sourgrass (Trichachne insularis), Spanishneedles (Bidens bipinnata), surinam grass (Brachiaria decumbens) and tall mallow (Malva sylvestris) were planted into greenhouse pots of flats containing greenhouse planting medium. Plant species were grown in separate pots or individual compartments. Preemergence applications were made within one day of planting the seed or plant part.
(§3) Test chemicals were formulated in a non-phytotoxic solvent mixture which included a surfactant and applied preemergence to the surface of the pot containing seeds in a sandy loam soil. Untreated control pots and treated pots were placed in the greenhouse for growth and visually evaluated for injury 14 to 21 days after herbicide application. Plant response ratings, summarized in Table C, are based on a 0 to 100 scale where 0 is no injury and 100 is complete control. A dash (−) response means no test result.

In another experiment the test system is common ragweed. The experiment can be described thus: Test D common ragweed. It is filed as in vivo, Ambrosia elatior. The note with it: Preemergence, 0 to 100 scale.
Text: as §2, §3

For another experiment, the system named is dallisgrass. Description: Test D dallisgrass. It is filed as in vivo, Paspalum dilatatum. The note with it: Preemergence, 0 to 100 scale.
Text: as §2, §3

The next experiment deals with goosegrass. The experiment can be described thus: Test D goosegrass. As to conditions: Preemergence, 0 to 100 scale. It is filed as in vivo, Eleusine indica. A digest of the protocol: as §1
For a further experiment, the system named is guineagrass. The experiment can be described thus: Test D guineagrass. It is filed as in vivo, Panicum maximum. As to conditions: Preemergence, 0 to 100 scale.
Text: as §2, §3

The test system of the next experiment is itchgrass. Description: Test D itchgrass. It is filed as in vivo, Rottboellia exaltata. As to conditions: Preemergence, 0 to 100 scale.
Text: as §2, §3

Experiment [1] has as its system Johnson grass. Description: Test D Johnson grass. It is filed as in vivo, Sorghum halepense. The note with it: Preemergence, 0 to 100 scale.
Text: as §2, §3

A further experiment has as its system pitted morningglory. The experiment can be described thus: Test D pitted morningglory. As to conditions: Preemergence, 0 to 100 scale. It is filed as in vivo, Ipomoea lacunosa. The method in brief: as §1
Another experiment deals with purple nutsedge. The experiment can be described thus: Test D purple nutsedge. It is filed as in vivo, Cyperus rotundus. As to conditions: Preemergence, 0 to 100 scale.
Text: as §2, §3

In a further experiment the test system is surinam grass. Description: Test D surinam grass. It is filed as in vivo, Brachiaria decumbens. The note with it: Preemergence, 0 to 100 scale.
Text: as §2, §3

The subject of experiment [2] is tall mallow. Description: Test D tall mallow. It is filed as in vivo, Malva sylvestris. As to conditions: Preemergence, 0 to 100 scale. A digest of the protocol: as §1
The next experiment deals with wild poinsettia. The experiment can be described thus: Test C postemergence wild poinsettia. It is filed as in vivo, Euphorbia heterophylla. As to conditions: 0 to 100 scale, 0 no effect, 100 complete control. A digest of the protocol: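 Visual ratings on a 0 to 100 scale, where 0 means no effect and 100 complete control, were made versus untreated controls roughly 14 to 21 days after postemergence treatment. Test compounds were formulated in a non-phytotoxic solvent mixture containing a surfactant.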

The test system of experiment [3] is Johnson grass. Description: Test D Johnson grass. It is filed as in vivo, Sorghum halepense. As to conditions: Postemergence, 0 to 100 scale.
In experiment [4] the test system is tall mallow. Description: Test D tall mallow. It is filed as in vivo, Malva sylvestris. The note with it: Postemergence, 0 to 100 scale.
The mark [5] stands for this setting: Rate 16 g/ha, 0 no injury, 100 complete control.
[6] abbreviates: Rate 32 g/ha, 0 no injury, 100 complete control.
Where [7] appears, read: Rate 64 g/ha, 0 no injury, 100 complete control.
[8] abbreviates: Rate 125 g/ha, 0 no injury, 100 complete control.

Take `Cc1ccccc1-n1c(=O)on(C(=O)N(c2ccc(F)cc2)C(C)C)c1=O` [Compound 4]: the “Plant response rating, Alexandergrass” value was found to be 20 in the experiment with Alexandergrass (setting [5]); 20 in the experiment with Alexandergrass (setting [6]); 80 in the experiment on Alexandergrass (setting [7]); 80 with Alexandergrass (setting [8]); 90 in the experiment on Alexandergrass (Rate 250 g/ha); 100 with Alexandergrass (Rate 500 g/ha). The “Plant response rating, Bermudagrass” value is 0 in the experiment on bermuda-grass (setting [5]); 0 in the experiment on bermuda-grass (setting [6]); 0 with bermuda-grass (setting [7]); 30 in the experiment on bermuda-grass (setting [8]); 98 with bermuda-grass (Rate 250 g/ha); 98 with bermuda-grass (Rate 500 g/ha). In addition, the “Plant response rating, C. ragweed” value in the experiment on common ragweed (setting [5]), in the experiment on common ragweed (setting [6]), in the experiment with common ragweed (setting [7]), in the experiment on common ragweed (setting [8]), with common ragweed (Rate 250 g/ha) and with common ragweed (Rate 500 g/ha) was 0 in each case. In addition, the “Plant response rating, Dallisgrass” value in the experiment on dallisgrass (setting [5]) was found to be 75; in the experiment on dallisgrass (setting [6]), 85; in the experiment with dallisgrass (setting [7]), 90; with dallisgrass (setting [8]), 98; in the experiment with dallisgrass (Rate 250 g/ha), 98; with dallisgrass (Rate 500 g/ha), 98. Moreover, the “Plant response rating, Goosegrass” value in the experiment on goosegrass (setting [5]) is 70; with goosegrass (setting [6]), 85; with goosegrass (setting [7]) it was 95; with goosegrass (setting [8]), 98; in the experiment with goosegrass (Rate 250 g/ha), 98; with goosegrass (Rate 500 g/ha), 100. Also, the “Plant response rating, Guineagrass” value is listed as 20 with guineagrass (setting [5]); 20 in the experiment with guineagrass (setting [6]); 50 in the experiment on guineagrass (setting [7]); 90 in the experiment on guineagrass (setting [8]); 100 in the experiment on guineagrass (Rate 250 g/ha); 100 in the experiment with guineagrass (Rate 500 g/ha). Moreover, the “Plant response rating, Itchgrass” value in the experiment on itchgrass (setting [5]) worked out at 0; with itchgrass (setting [6]) it was 0; in the experiment with itchgrass (setting [7]), 75; with itchgrass (setting [8]), 0; with itchgrass (Rate 250 g/ha), 80; with itchgrass (Rate 500 g/ha), 80. In addition, the “Plant response rating, Johnsongrass” value worked out at 0 with Johnson grass [1] (setting [5]); 0 in the experiment with Johnson grass [1] (setting [6]); 30 in the experiment on Johnson grass [1] (setting [7]); 0 in the experiment with Johnson grass [1] (setting [8]); 30 in the experiment with Johnson grass [1] (Rate 250 g/ha); 30 with Johnson grass [1] (Rate 500 g/ha). The “Plant response rating, P. morninglory” value in the experiment with pitted morningglory (setting [5]), with pitted morningglory (setting [6]), with pitted morningglory (setting [7]), in the experiment with pitted morningglory (setting [8]), in the experiment with pitted morningglory (Rate 250 g/ha) and with pitted morningglory (Rate 500 g/ha) was 0 in each case. For the same compound, the “Plant response rating, Purple nutsedge” value in the experiment on purple nutsedge (setting [5]), in the experiment on purple nutsedge (setting [6]), with purple nutsedge (Rate 250 g/ha) and with purple nutsedge (Rate 500 g/ha) was 0 throughout. For the same compound, the “Purple nutsedge plant response rating” value with purple nutsedge (setting [7]) and in the experiment with purple nutsedge (setting [8]) was 0 each time. For the same compound, the “Plant response rating, Surinam grass” value turned out to be 0 with surinam grass (setting [5]), 0 in the experiment on surinam grass (setting [6]), 85 in the experiment with surinam grass (Rate 250 g/ha) and 98 in the experiment with surinam grass (Rate 500 g/ha). In addition, the figures for the “Surinam grass plant response rating” value in the experiment with surinam grass (setting [7]) and in the experiment with surinam grass (setting [8]) were 65 and 90, respectively. The “Plant response rating, Tall Mallow” value turned out to be 0 in the experiment with tall mallow [2] (setting [5]), 0 with tall mallow [2] (setting [6]), 30 with tall mallow [2] (Rate 250 g/ha) and 30 in the experiment with tall mallow [2] (Rate 500 g/ha). Moreover, the “Tall Mallow plant response rating” value with tall mallow [2] (setting [7]) and in the experiment with tall mallow [2] (setting [8]) was 0 in each case.
As for `CC(C)N(C(=O)n1oc(=O)n(Cc2cccs2)c1=O)c1ccc(F)cc1` [Compound 80], the “Plant response rating Wild poinsettia” value turned out to be 0 in the experiment with wild poinsettia (Rate 140 g/ha), 0 in the experiment with wild poinsettia (Rate 280 g/ha), 5 with wild poinsettia (Rate 560 g/ha) and 5 in the experiment with wild poinsettia (Rate 1120 g/ha).
For the compound `CC(C)Cn1c(=O)on(C(=O)N(c2ccc(F)cc2)C(C)C)c1=O` [Compound 169], the “Plant response rating, Johnsongrass” value in the experiment with Johnson grass [3] (setting [7]) was determined as 0. Moreover, in the experiment on tall mallow [4] (setting [7]), the “Tall Mallow plant response rating” value is listed as 0.
Consider `CC(C)N(C(=O)n1oc(=O)n(C2CC2)c1=O)c1ccc(Cl)cc1` [Compound 241], for which the “Plant response rating, Johnsongrass” value stood at 80 with Johnson grass [3] (setting [5]); 0 in the experiment with Johnson grass [3] (setting [6]); 0 in the experiment on Johnson grass [3] (setting [7]); 0 in the experiment with Johnson grass [3] (setting [8]); 0 in the experiment with Johnson grass [3] (Rate 250 g/ha). Besides, the “Plant response rating, Tall Mallow” value with tall mallow [4] (setting [5]) is 0; in the experiment on tall mallow [4] (setting [6]) it was 0; in the experiment on tall mallow [4] (Rate 250 g/ha) it was 40. Moreover, the “Tall Mallow plant response rating” value was 0 with tall mallow [4] (setting [7]) and 10 in the experiment on tall mallow [4] (setting [8]).
As to `CC(C)N(C(=O)n1oc(=O)n(C2CCC2)c1=O)c1ccccc1` [Compound 348], the “Plant response rating, Johnsongrass” value is 0 in the experiment with Johnson grass [3] (setting [5]); 0 with Johnson grass [3] (setting [6]); 0 in the experiment with Johnson grass [3] (setting [7]); 20 in the experiment with Johnson grass [3] (setting [8]); 90 in the experiment on Johnson grass [3] (Rate 250 g/ha). Besides, the figures for the “Plant response rating, Tall Mallow” value in the experiment with tall mallow [4] (setting [5]), with tall mallow [4] (setting [6]) and in the experiment on tall mallow [4] (Rate 250 g/ha) were 0, 0 and 40, respectively. The “Tall Mallow plant response rating” value worked out at 0 in the experiment with tall mallow [4] (setting [7]) and 20 in the experiment with tall mallow [4] (setting [8]).
Consider `CC(C)N(C(=O)n1oc(=O)n(C2CCC2)c1=O)c1ccc(Cl)cc1` [Compound 349], for which the “Plant response rating, Johnsongrass” value in the experiment with Johnson grass [3] (setting [5]) is on record as 0; in the experiment with Johnson grass [3] (setting [6]) it was 0; in the experiment on Johnson grass [3] (setting [7]), 0; in the experiment on Johnson grass [3] (setting [8]), 10; in the experiment with Johnson grass [3] (Rate 250 g/ha), 40. Moreover, the “Plant response rating, Tall Mallow” value in the experiment on tall mallow [4] (setting [5]), in the experiment on tall mallow [4] (setting [6]) and with tall mallow [4] (Rate 250 g/ha) was 0 in each case. Also, the “Tall Mallow plant response rating” value in the experiment with tall mallow [4] (setting [7]) and in the experiment with tall mallow [4] (setting [8]) was 0 throughout.
